{"source": "patent US20200138081A1", "about": "“Biologically active food additive for preventing and treating acute respiratory diseases and flu” (Parapharm LLC, priority 2013, published 2020)", "type_in_all_cases": "in vivo, human", "key": {"ARD": {"system": "ARD", "experiment": "Example 5 catamnesis, ARD during six months after the study", "conditions": "during six months after the study was over", "method": "(§1) 29 participants, 37 to 60 years old, residing in the city of Penza and suffering from frequent catarrhal diseases were examined, and low levels of immunoglobulin reference values were uncovered. In view of the task set, immunopotentiation was administered to them. Depending on the method of immune correction, the participants were divided into three groups:1st group—nine persons took a tablet of the ADBH (150 mg) twice a day for 30 days, 2nd group—8 persons took a tablet of vitamin D3 (500 IE) twice a day for 30 days, and 3rd group—12 persons took a tablet of the proposed additive (150 mg of the ADBH and 500 IE of vitamin D3) by one tablet twice a day for 30 days.\nIn other words, an unexpected result of the combined use of the ingredients dramatically differs from that where the ingredients are employed individually. […] The result can probably be explained by the presence of an enhancer of one ingredient of the proposed additive in the other which is on full display only when the both ingredients are used jointly."}, "IgM [1]": {"system": "IgM", "experiment": "Example 5 comparative effect of ingredients and additive, serum IgM", "description": "(§2) The object of the study lied in analyzing comparative effect of main ingredients of the additive (the ADBH and vitamin D, separately) on the immune system of the body by variations of the main classes of immunoglobulins IgG, IgA, and IgM in blood serum. As stated previously, IgG is the main serum immunoglobuline of a healthy human amounting to 70-75% of the whole immunoglobulin fraction. It is especially active in the immune response. The serous IgA makes up to 15-20% of the whole immunoglobulin fraction. […] The IgM immunoglobulins are capable of neutralizing foreign particles, effectively activating complement, triggering defensive response mechanisms in the body.\nas §1"}, "IgA": {"system": "IgA", "experiment": "Example 5 comparative effect of ingredients and additive, serum IgA", "description": "as §2, §1"}, "IgG [2]": {"system": "IgG", "experiment": "Example 5 comparative effect of ingredients and additive, serum IgG", "description": "as §2, §1"}, "IgM [3]": {"system": "IgM", "experiment": "Example 6 ADBH, 25(OH)D and combination, IgM (immunoturbidimetric)", "description": "(§3) The object was to study the effect of active metabolites of vitamin D, as exemplified by 25 (OH)D, on the immune status in participants, judging by the level of immunoglobulines IgG, IgA, and IgM. 32 participants in the age range between 38 and 62 (23 females and 9 males) residing in Penza had no acute diseases and were apparently healthy. The immune status was examined before the therapy started and 30 days after that. […] Immunoglobulines were detected by an immunoturbidimetric method, using an assay kit of DiaSys Diagnostic Systems (Germany).\n(§4) Table 3 presents mean values (M±m) of specific antibody response for main immunoglobulin classes IgG, IgA, and IgM."}, "IgG [4]": {"system": "IgG", "experiment": "Example 6 ADBH, 25(OH)D and combination, IgG (immunoturbidimetric)", "description": "as §3, §4"}, "[5]": {"conditions": "After, one tablet twice a day for 30 days (ADBH 150 mg; vitamin D3 500 IE; additive 150 mg ADBH + 500 IE D3)"}, "[6]": {"conditions": "Before, participants 37 to 60 years with frequent catarrhal diseases"}, "[7]": {"conditions": "After one-month treatment, twice a day (ADBH 150 mg, 25(OH)D 50 IE; or both in one tablet)"}, "[8]": {"conditions": "Before, apparently healthy participants 38 to 62 years"}}}
{"smiles": "C=C1CC[C@H](O)C/C1=C/C=C1\\CCC[C@]2(C)[C@@H]([C@H](C)CCCC(C)C)CC[C@@H]12", "note": "[vitamin D3]", "values": [{"measurement": "falling ill with ARD in catamnesis", "setting": "ARD", "result": "had those diseased"}, {"measurement": "IgM, M ± m", "setting": "IgM [1]; [5]", "result": 1.82}, {"measurement": "IgM, M ± m", "setting": "IgM [1]; [6]", "result": 1.91}, {"measurement": "IgA, M ± m", "setting": "IgA; [5]", "result": 1.93}, {"measurement": "IgA, M ± m", "setting": "IgA; [6]", "result": 1.81}, {"measurement": "IgG, M ± m", "setting": "IgG [2]; [5]", "result": 12.27}, {"measurement": "IgG, M ± m", "setting": "IgG [2]; [6]", "result": 12.41}]}
{"smiles": "C=C1CC[C@H](O)C/C1=C/C=C1\\CCC[C@]2(C)[C@@H]([C@H](C)CCCC(C)(C)O)CC[C@@H]12", "note": "[25 (OH)D]", "values": [{"measurement": "IgM, M ± m", "setting": "IgM [3]; [7]", "result": 1.82}, {"measurement": "IgM, M ± m", "setting": "IgM [3]; [8]", "result": 1.91}, {"measurement": "IgG, M ± m", "setting": "IgG [4]; [7]", "result": 12.39}, {"measurement": "IgG, M ± m", "setting": "IgG [4]; [8]", "result": 12.21}]}
